Assay: Effect of temperature (and pH) on the stability of the solution (purity)
Type: physicochemical

CCN(CC)CCOC(=O)Cc1ccccc1Oc1ccc(Cl)cc1Cl.Cl
Purity (%) at day 21 (60° C.) (pH 1.0, 7% solution in water): 0% | Purity(%) at day 0 (pH 1.0, 7% solution in water): 97.9 ± 0.3% | Purity(%) at day 21 (5° C.) (pH 1.0, 7% solution in water): 91.3 ± 0.3% | Purity(%) at day 21 (25° C.) (pH 1.0, 7% solution in water): 67.3 ± 0.3% | Purity(%) at day 21 (40° C.) (pH 1.0, 7% solution in water): 15.1 ± 0.3% | Purity (%) at day 21 (60° C.) (pH 2.0, 7% solution in water): 0% | Purity(%) at day 0 (pH 2.0, 7% solution in water): 98.0 ± 0.2% | Purity(%) at day 21 (5° C.) (pH 2.0, 7% solution in water): 95.1 ± 0.3% | Purity(%) at day 21 (25° C.) (pH 2.0, 7% solution in water): 82.1 ± 0.3% | Purity(%) at day 21 (40° C.) (pH 2.0, 7% solution in water): 27.0 ± 0.3% | Purity (%) at day 21 (60° C.) (pH 3.0, 7% solution in water): 0% | Purity(%) at day 0 (pH 3.0, 7% solution in water): 98.3 ± 0.2% | Purity(%) at day 21 (5° C.) (pH 3.0, 7% solution in water): 97.0 ± 0.2% | Purity(%) at day 21 (25° C.) (pH 3.0, 7% solution in water): 93.5 ± 0.2% | Purity(%) at day 21 (40° C.) (pH 3.0, 7% solution in water): 48.3 ± 0.3% | Purity (%) at day 21 (60° C.) (pH 3.7, 7% solution in water): 13.3 ± 0.5% | Purity(%) at day 0 (pH 3.7, 7% solution in water): 98.4 ± 0.1% | Purity(%) at day 21 (5° C.) (pH 3.7, 7% solution in water): 97.6 ± 0.2% | Purity(%) at day 21 (25° C.) (pH 3.7, 7% solution in water): 96.9 ± 0.3% | Purity(%) at day 21 (40° C.) (pH 3.7, 7% solution in water): 57.2 ± 0.2% | Purity (%) at day 21 (60° C.) (pH 4.0, 7% solution in water): 18.2 ± 0.3% | Purity(%) at day 0 (pH 4.0, 7% solution in water): 98.5 ± 0.1% | Purity(%) at day 21 (5° C.) (pH 4.0, 7% solution in water): 98.0 ± 0.1% | Purity(%) at day 21 (25° C.) (pH 4.0, 7% solution in water): 97.0 ± 0.2% | Purity(%) at day 21 (40° C.) (pH 4.0, 7% solution in water): 68.1 ± 0.3% | Purity (%) at day 21 (60° C.) (pH 4.3, 7% solution in water): 17.2 ± 0.2% | Purity(%) at day 0 (pH 4.3, 7% solution in water): 98.5 ± 0.2% | Purity(%) at day 21 (5° C.) (pH 4.3, 7% solution in water): 98.0 ± 0.1% | Purity(%) at day 21 (25° C.) (pH 4.3, 7% solution in water): 97.0 ± 0.3% | Purity(%) at day 21 (40° C.) (pH 4.3, 7% solution in water): 68.1 ± 0.3% | Purity (%) at day 21 (60° C.) (pH 4.6, 7% solution in water): 14.3 ± 0.3% | Purity(%) at day 0 (pH 4.6, 7% solution in water): 98.6 ± 0.1% | Purity(%) at day 21 (5° C.) (pH 4.6, 7% solution in water): 98.1 ± 0.2% | Purity(%) at day 21 (25° C.) (pH 4.6, 7% solution in water): 96.1 ± 0.2% | Purity(%) at day 21 (40° C.) (pH 4.6, 7% solution in water): 54.5 ± 0.2% | Purity (%) at day 21 (60° C.) (pH 5.0, 7% solution in water): 1.2 ± 0.2% | Purity(%) at day 0 (pH 5.0, 7% solution in water): 98.4 ± 0.2% | Purity(%) at day 21 (5° C.) (pH 5.0, 7% solution in water): 96.9 ± 0.2% | Purity(%) at day 21 (25° C.) (pH 5.0, 7% solution in water): 93.1 ± 0.3% | Purity(%) at day 21 (40° C.) (pH 5.0, 7% solution in water): 40.8 ± 0.3% | Purity (%) at day 21 (60° C.) (pH 6.0, 7% solution in water): 0% | Purity(%) at day 0 (pH 6.0, 7% solution in water): 98.2 ± 0.2% | Purity(%) at day 21 (5° C.) (pH 6.0, 7% solution in water): 95.0 ± 0.2% | Purity(%) at day 21 (25° C.) (pH 6.0, 7% solution in water): 86.7 ± 0.2% | Purity(%) at day 21 (40° C.) (pH 6.0, 7% solution in water): 27.8 ± 0.2% | Purity (%) at day 21 (60° C.) (pH 7.0, 7% solution in water): 0% | Purity(%) at day 0 (pH 7.0, 7% solution in water): 98.0 ± 0.3% | Purity(%) at day 21 (5° C.) (pH 7.0, 7% solution in water): 90.0 ± 0.3% | Purity(%) at day 21 (25° C.) (pH 7.0, 7% solution in water): 59.3 ± 0.3% | Purity(%) at day 21 (40° C.) (pH 7.0, 7% solution in water): 11.0 ± 0.4% | Purity (%) at day 21 (60° C.) (pH 8.0, 7% solution in water): 0% | Purity(%) at day 0 (pH 8.0, 7% solution in water): 97.8 ± 0.3% | Purity(%) at day 21 (5° C.) (pH 8.0, 7% solution in water): 78.3 ± 0.3% | Purity(%) at day 21 (25° C.) (pH 8.0, 7% solution in water): 47.1 ± 0.3% | Purity(%) at day 21 (40° C.) (pH 8.0, 7% solution in water): 0%

— US20230157952A1, “METHOD FOR IMPROVING THE STABILITY OF A PHARMACEUTICAL COMPOSITION COMPRISING A HIGH PENETRATION DRUG, AND THE PHARMACEUTICAL COMPOSITION OBTAINED THEREFROM” (Techfields Inc., priority 2020, published 2023)
